According to publication PMC4066871 (Bioorganic & medicinal chemistry letters, 2013):

Tests used:
[1] = test system: GIRK1/2; details: cited from earlier work
[2] = target: T1, GIRK1/GIRK4 (Homo sapiens, UniProt P48544+P48549); details: GIRK1/2 activator vs GIRK1/4; cited from earlier work
T1 sequence (P48549 1-501): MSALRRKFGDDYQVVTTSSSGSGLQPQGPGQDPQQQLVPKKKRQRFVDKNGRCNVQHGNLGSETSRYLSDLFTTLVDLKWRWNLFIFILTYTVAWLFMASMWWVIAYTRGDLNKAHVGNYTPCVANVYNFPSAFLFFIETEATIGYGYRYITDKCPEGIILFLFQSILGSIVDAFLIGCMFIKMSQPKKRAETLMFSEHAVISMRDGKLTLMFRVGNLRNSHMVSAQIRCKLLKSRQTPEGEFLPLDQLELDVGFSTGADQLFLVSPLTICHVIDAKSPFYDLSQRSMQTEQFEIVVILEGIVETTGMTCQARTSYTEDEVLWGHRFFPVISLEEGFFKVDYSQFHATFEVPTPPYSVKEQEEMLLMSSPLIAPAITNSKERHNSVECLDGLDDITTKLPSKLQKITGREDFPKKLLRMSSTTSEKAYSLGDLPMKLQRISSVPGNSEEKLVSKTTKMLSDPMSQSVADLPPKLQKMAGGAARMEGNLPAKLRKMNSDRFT
T1 sequence (P48544 1-419): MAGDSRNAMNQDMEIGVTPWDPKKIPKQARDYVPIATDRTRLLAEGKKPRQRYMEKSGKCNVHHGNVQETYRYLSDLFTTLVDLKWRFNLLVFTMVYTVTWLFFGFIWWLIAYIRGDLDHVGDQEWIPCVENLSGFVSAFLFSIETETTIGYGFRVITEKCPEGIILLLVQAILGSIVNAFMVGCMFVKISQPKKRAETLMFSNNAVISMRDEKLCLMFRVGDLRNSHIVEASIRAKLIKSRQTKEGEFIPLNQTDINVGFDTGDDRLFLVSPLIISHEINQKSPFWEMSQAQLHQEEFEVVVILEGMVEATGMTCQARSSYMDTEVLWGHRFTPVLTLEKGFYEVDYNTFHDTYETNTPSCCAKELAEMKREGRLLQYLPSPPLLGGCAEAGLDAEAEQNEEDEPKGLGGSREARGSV

[3] = test system: other K+ channels; details: cited from earlier work
[4] = test system: GIRK2/3; details: cited from earlier work
[5] = target: T2, GIRK1/GIRK2 (Homo sapiens, UniProt P48051+P48549); test: GIRK1/2 thallium flux assay in stably transfected HEK-293 cells; format: cell-based
T2 sequence (P48549 1-501): T1 sequence (P48549 1-501)
T2 sequence (P48051 1-423): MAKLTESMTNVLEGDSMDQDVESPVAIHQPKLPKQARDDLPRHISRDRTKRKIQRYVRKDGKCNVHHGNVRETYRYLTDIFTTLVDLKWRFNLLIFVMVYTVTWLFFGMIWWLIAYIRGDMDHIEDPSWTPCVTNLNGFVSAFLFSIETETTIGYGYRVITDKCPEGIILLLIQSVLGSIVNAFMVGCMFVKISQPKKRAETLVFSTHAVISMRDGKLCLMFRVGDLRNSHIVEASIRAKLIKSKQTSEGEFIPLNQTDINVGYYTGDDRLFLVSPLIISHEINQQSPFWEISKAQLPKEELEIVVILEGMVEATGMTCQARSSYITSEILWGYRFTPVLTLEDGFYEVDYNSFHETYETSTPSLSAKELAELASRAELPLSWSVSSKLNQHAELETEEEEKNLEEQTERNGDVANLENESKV

[6] = target: T1, GIRK1/GIRK4; test: GIRK1/4 thallium flux assay in stably transfected HEK-293 cells; format: cell-based
[7] = test system: GIRK; details: cited from earlier work

Compound	GIRK1/2 activity (in words) [5]	GIRK1/4 activity (in words) [6]	also measured
Cc1cc(NC(=O)Nc2ccc(F)c(F)c2)n(-c2ccccc2)n1 [Compd 2]	–	–	CNS penetration (in words) [1]: centrally penetrant; Anti-epileptic properties (in words) ([1]; mice, via GIRK1/2 activation): established anti-epileptic properties in mice; Selectivity for GIRK1/2 vs GIRK1/4 [2]: ~ 10 fold; Activity on other K+ channels (in words) [3]: inactive; Activity on GIRK2/3 (in words) [4]: inactive
CN(C)S(=O)(=O)c1cccc(NC(=O)Cc2ccccc2Cl)c1 [Compd 3b]	diminished potency and lost efficacy	maintained potency and efficacy	–
CN(C)S(=O)(=O)c1cccc(NC(=O)Cc2ccc(Cl)cc2)c1 [Compd 3c]	diminution in potency	diminution in potency	–
Cc1ccc(NC(=O)Cc2ccc(F)cc2)cc1S(=O)(=O)N(C)C [Compd 3d]	diminution in potency	diminution in potency	–
O=C(Cc1ccccc1Cl)Nc1cccc(Cl)c1 [Compd 8g]	–	selective, partial GIRK1/4 activators	–
O=C(Cc1ccccc1Cl)Nc1ccc(C(F)(F)F)cc1 [Compd 8h]	–	selective, partial GIRK1/4 activators	–
CCO [ethanol]	–	–	Concentration known to activate GIRK [7]: hundreds of millimolar
C[C@@H]1O[C@@H](O[C@H]2[C@H](Oc3cc(O)c4c(c3)O[C@H](c3ccc(O)cc3)CC4=O)O[C@H](CO)[C@@H](O)[C@@H]2O)[C@H](O)[C@H](O)[C@H]1O [naringin]	–	–	EC50 ([7]; read-out: GIRK activation EC50, reported value): > 100 µM
